Measurements from US12448655B2, “Antibiotic susceptibility of microorganisms and related methods and systems” (CALIFORNIA INSTITUTE OF TECHNOLOGY, priority 2017, dated 2025).

Legend:
Format in all cases: cell-based
Neisseria gonorrhoeae [1] = assay: AST by inaccessible DNA, 1 incubation step with Triton X-100 and DNaseI, qPCR (Example 1)
Experimental: An antibiotic susceptibility test can be performed with methods herein described comprising 15-minute co-incubation of the sample with antibiotics and an enhancing treatment followed by cell lysis, and detection of differences in amounts of detected DNA between the antibiotic-susceptible and a corresponding control but not in antibiotic-resistant NG isolates with respect to a corresponding control.
For each isolate, two incubation tubes were prepared in 2 mL purple cap tubes (VWR Cat #89004-298), following the indication in table x below, titled “Antibiotic Exposure per 500 μL”. Add Triton X (enhancer), DNaseI (Cat: M0303L) (degrader), NaHCO3 (conditioner).
The antibiotic incubation/exposure was performed on a heat-shake block fit to 2 mL purple cap tubes (VWR Cat #89004-298). The particular shake-block was measured with a thermocouple to ensure the temperature inside the tubes with 500 μL of media is 37° C. (settings 38° C. and 1000 rpm shaking), qPCR was used for NA amplification
Extraction was performed following “DEB Extraction” description in the general methods using Eppendorf tubes. Vortex samples briefly (2 seconds) and centrifuge before transferring 10 μL of the sample to 90 μL of the extraction buffer. • 9. Optionally, continue incubation of the treated and untreated samples for a control of the antibiotic efficacy over >15 minute exposures
The “qPCR” description in the general methods was followed. All DEB-extracted DNA were quantified using a primer mix=(10 µM forward and reverse) targeting N. gonorrhoeae porA gene. Samples were run in qPCR triplicates (10 μL reactions) at an annealing temperature 62° C. The primers target the porA gene. • 11. Data analysis is performed on the raw cq measurements obtained from the qPCR instrument

Neisseria gonorrhoeae [2] = assay: Minimum inhibitory concentrations (MICs) of Neisseria gonorrhoeae clinical isolates
Experimental: Isolates and agar-dilution MIC testing. Isolates were provided by the University of Washington Neisseria Reference Laboratory and the Centers for Disease Control (CDC) Antibiotic Resistance Isolate Bank Neisseria gonorrhoeae panel (SINuca-Table). MICs of the CDC AR Isolate Bank are reported by the CDC [10], and MIC of all other isolates were determined by agar dilution according to the Clinical and Laboratory Standards Institute (CLSI) guidelines.

Neisseria gonorrhoeae [3] = assay: Two-step aAST with surfactant (CHAPS) only in the secondary exposure, qPCR CT ratio (Example 11); conditions: 1 μg/mL ceftriaxone 15 min, then 10 mM CHAPS with DNaseI 5 min
Experimental: This example was performed using a two-step exposure in which the first step is exposure to a beta-lactam antibiotic and the second step is a 1:1 dilution into DNaseI treatment in the presence of a surfactant.
The inclusion of the surfactant enhances the accessible nucleic acids made available by short (15 minute) b-lactam exposure by adding a second incubation step with a surfactant. Differences in DNA accessibility between the unexposed and exposed tubes are enhanced. DNaseI is used to degrade the DNA made accessible by beta-lactam treatment and the surfactant.
FIG. 23 describes the layout of this experiment. An NG isolate is incubated with a beta-lactam antibiotic for 15 minutes, followed by a DNaseI digestion step in the presence of surfactant. At each time point, DNaseI will be added to degrade the accessible DNA, then the DNaseI will be inactivated simultaneously with the lysis of the remaining cells. The quantified nucleic acids represent those inaccessible from the DNaseI throughout the exposure protocol. • 1. Provide incubation media containing enhancer, accessibility, with and without an antibiotic for each isolate
The samples were mixed before transferring 25 μL of the sample to the prepared secondary incubation (enhancer) tubes. […]

Neisseria gonorrhoeae [4] = assay: Two-step nuc-aAST on Ng clinical urine samples and their isolates, TNP enhancer (Examples 35, 37); conditions: antibiotic-resistant samples and isolates (Sample #3, #4); 1 μg/mL 30 min, then TNP 3-5 min, DNaseI
Experimental: Clinical sample nuc-aAST. Suspensions of clinical urine samples were prepared as described above. All suspensions were generated, and the ABX-exposure step initiated within 90 min of sample donation. The initial ABX-exposure was performed by incubating 50 μL control and treated samples at 37° C. in PCR tube strips on a BioRad C1000 Thermal Cycler. Treated samples consisted of […] of suspension and 1.25 μL aliquot of PEN or CRO (40 μg/mL). ABX were replaced with NF—H2O in control samples. After 30 min of incubation, samples were vortexed and quickly spun on a benchtop microcentrifuge (Labnet) at 2,000×g for 2-3 sec, and 2.7 μL TNP (100 mM) was added to each sample for the enhancement step. Samples were then immediately vortexed, spun on a benchtop microcentrifuge (Labnet) at 2,000×g for 2-3 sec, and incubated at 37° C. for 3-5 min. After the enhancement step, 20 μL from each sample was extracted by diluting 5× in QuickExtract DNA Extraction Solution (Lucigen) and heating for 6 min at 65° C. followed by 4 min at 98° C. on a BioRad C1000 Thermal Cycler. All sample handling following ABX exposure was performed using a multichannel pipette; qPCR and calculation of percentage accessibility were performed as previously described, with the modification that the qPCR mix included 2 μL of template per 10 μL PCR reaction instead of 1 μL template per 10 μL reaction. […]

Compound | Antibiotic MICs (Neisseria gonorrhoeae [2]; isolate ng_1) | Antibiotic MICs (Neisseria gonorrhoeae [2]; isolate ng_2) | Antibiotic MICs (Neisseria gonorrhoeae [2]; isolate ng_3) | Antibiotic MICs (Neisseria gonorrhoeae [2]; isolate ng_4) | Antibiotic MICs (Neisseria gonorrhoeae [2]; isolate ng_5) | Antibiotic MICs (Neisseria gonorrhoeae [2]; isolate ng_6) | Antibiotic MICs (Neisseria gonorrhoeae [2]; isolate ng_12) | Antibiotic MICs (Neisseria gonorrhoeae [2]; isolate ng_15) | Antibiotic MICs (Neisseria gonorrhoeae [2]; isolate ng_16) | Antibiotic MICs (Neisseria gonorrhoeae [2]; isolate ng_17) | Antibiotic MICs (Neisseria gonorrhoeae [2]; isolate ng_18) | Antibiotic MICs (Neisseria gonorrhoeae [2]; isolate ng_19) | Antibiotic MICs (Neisseria gonorrhoeae [2]; isolate ng_20) | Antibiotic MICs (Neisseria gonorrhoeae [2]; isolate ng_30) | Antibiotic MICs (Neisseria gonorrhoeae [2]; isolate ng_41) | Antibiotic MICs (Neisseria gonorrhoeae [2]; isolate ng_44) | other results
CO/N=C(\C(=O)N[C@@H]1C(=O)N2C(C(=O)O)=C(CSc3nc(=O)c(=O)[nH]n3C)CS[C@H]12)c1csc(N)n1 [CRO, ceftriaxone] | ≤0.008 µg/mL | <0.008 µg/mL | ≤0.008 µg/mL | 0.030 µg/mL | 0.015 µg/mL | ≤0.008 µg/mL | 0.015 µg/mL | ≤0.008 µg/mL | ≤0.008 µg/mL | ≤0.008 µg/mL | 0.030 µg/mL | 0.015 µg/mL | ≤0.008 µg/mL | 0.500 µg/mL | 0.125 µg/mL | ≤0.008 µg/mL | Cqs of treated sample compared with control (no ABX) (Neisseria gonorrhoeae [1]; ceftriaxone-resistant isolate ng_30, 15-minute incubation with 1% TritonX-100 and DNaseI): not distinguishable from the control; difference in relative concentrations (inaccessible DNA) control vs treated (Neisseria gonorrhoeae [1]; ceftriaxone-susceptible isolate ng_3, 15-minute incubation with 1% TritonX-100 and DNaseI): 11 fold; Cq difference between control and antibiotic-treated sample (FIG. 3 bars (a) and (b)) (Neisseria gonorrhoeae [1]; ceftriaxone-susceptible isolate ng_3, 15-minute incubation with 1% TritonX-100 and DNaseI in MH media): 3.5 Cq; Antibiotic MICs (Neisseria gonorrhoeae [2]; isolate ng_15, listed as ceftriaxone): < 0.008 µg/mL; Antibiotic MICs (Neisseria gonorrhoeae [2]; isolate ng_17, listed as ceftriaxone): ≤ 0.008 µg/mL; Antibiotic MICs (Neisseria gonorrhoeae [2]; isolate ng_30, listed as ceftriaxone): 0.05 µg/mL; CT ratio (control/treated, qPCR) (Neisseria gonorrhoeae [3]; ceftriaxone-susceptible isolates ng_5, ng_17, ng_19): > 1.5; CT ratio (control/treated, qPCR) (Neisseria gonorrhoeae [3]; reduced-susceptibility isolate ng_30): < 1.5
penicillin | 0.250 µg/mL | 0.250 µg/mL | 0.250 µg/mL | 0.500 µg/mL | 1.000 µg/mL | 0.250 µg/mL | 0.500 µg/mL | 0.015 µg/mL | 0.015 µg/mL | 0.060 µg/mL | 2.000 µg/mL | 2.000 µg/mL | 0.060 µg/mL | 1.000 µg/mL | 2.000 µg/mL | 8.000 µg/mL | mean percentage accessibility of DNA (Neisseria gonorrhoeae [4]): < 46%
